In US11844786B2 (ADEPTIO PHARMACEUTICALS LIMITED, priority 2017, dated 2023):

Tested on: amphetamine-induced rats
Conditions: Study 1, 2.5 mg/kg, compared to vehicle-amphetamine group
Method: Locomotor activity of the rats was tested in open field arena.

In the case of `COc1cc2c(cc1OC)[C@@H]1C[C@H](O)[C@@H](CC(C)C)CN1CC2` [(−)-α-DHTBZ, (2S, 3S, 11bS)-3-isobutyl-9,10-dimethoxy-1,3,4,6,7,11b-hexahydro-2H-pyrido[2,1,a]isoquinolin-2-ol], the stereotypic behaviour is reported as “did not lead to lower locomotor activity or reduced stereotypic behaviour” and the “locomotor activity (distance travelled)” value (listed as (−)-α-isomer) is reported as “very little, if any, reduction”.
